“Also recorded” adds a separate entry of the source. Where a SMILES comes first, the peptide text is derived from it.

For assay [1], the system named is Pin1-WW domain (WW domain of Pin1). The assay can be described thus: ITC binding to Pin1-WW. As to conditions: 310 K, PBS pH 7.4, Pin1-WW 81.4 μM in cell, P33 in syringe. The method, then: Synthesis of acetyl-Fe65-WW, acetyl-Pin1-WW, and the control PPPPP (structures involved in Figure 2) was carried out on a Rink Amide AM (0.3 mmol∙g^−1) resin using Fmoc chemistry and activation with HATU in the presence of DIPEA. Cleavage was achieved by a treatment with TFA/H2O/triisopropylsilane/1,4-dithio-DL-threitol/phenol (90:5:3:1:1) at room temperature (RT). TFA was removed in vacuo, the peptides were then precipitated using cold, dry diethyl-ether, dissolved in ACN/H2O and lyophilized.
Isothermal titrations were performed using a Microcal VP-ITC (Malvern Instruments, Malvern, UK) microcalorimeter. Binding experiments were carried out in degassed phosphate-buffered saline (PBS) at pH 7.4. The concentrations of Fe65-WW and Pin1-WW were normalized for the peptide contents. In one titration experiment, 10-μL portions of the ligand-containing solution (P33 or PPPPP) were injected from a computer-controlled 300-μL microsyringe at intervals of 300 s into the solution of the WW domain (Fe65-WW or Pin1-WW), dissolved in the same buffer as for the ligand. The rev of the microsyringe was set to 307 rpm. […] Control experiments were performed by injecting P33 or PPPPP into the cell containing plain buffer without the WW domain, with results achieved via subtracting the dilution heats from those measured in the presence of the WW domain.

In the next assay the test system is Iba1-positive microglia. Kind of assay: Iba1 immunohistochemistry, microglia density. Conditions: APP/PS1-vehicle vs. WT-vehicle, WT-P33, APP/PS1-P33; HC and CTX; 5 mg∙kg^−1 i.p., six months. It counts as in vivo, mouse. On the procedure:
For this study, three-month-old male and female WT and APP/PS1 mice (n = 37) were used. Four groups were defined: WT-vehicle (physiological saline) (male n = 4; female n = 6), WT-P33 (male n = 6; female n = 5), APP/PS1-vehicle (male n = 3; female n = 5), and APP/PS1-P33 (male n = 6; female n = 2). Animals were subjected to intraperitoneal (i.p.) injections of P33 (5 mg∙kg^−1) for five days per week, over a course of six months. The mice were kept in groups under constant temperature (23 ± 0.5 °C), lighting (12-h/12-h light/dark cycle, lights on at 7:00 a.m.), and humidity (~50%). Standard mouse chow and tap water were supplied ad libitum. All behavioral experiments were performed in the light period. Handling was done daily at the same time.
Mice (five animals per group) were anaesthetized with chloral-hydrate (1 mg∙kg^−1) and perfused transcardially with PBS, followed by ice-cold 4% paraformaldehyde. The brains were removed, post-fixed in the same fixative, and immersed in a 30% sucrose solution containing 0.01% sodium-azide. […]
Slides were scanned by a digital slide scanner (Mirax Midi, 3DHistech Ltd., Budapest, Hungary), equipped with a Pannoramic Viewer 1.15.4, CaseViewer 2.1 program and a QuantCenter, HistoQuant module (3DHistech Ltd., Budapest, Hungary). For quantification, all of the sections were analyzed. […] Antibody-positive cell types from the ROIs were counted and quantified. […]

Turning to `C[C@@H](N)C(=O)N1CCC[C@@H]1C(=O)N[C@H](C)C(=O)N1CCC[C@@H]1C(=O)N[C@H](CCC(=O)O)C(N)=O` [P33] (HELM PEPTIDE1{[dA].[dP].[dA].[dP].[dE].[am]}$$$$V2.0), the “binding to Pin1-WW (in words)” value in assay [1] is given as “no considerable binding; also recorded: no detectable binding to the Pin1-WW could be observed”. The “density of Iba1-positive microglia (in words)” value in the assay on Iba1-positive microglia is reported as “higher in the APP/PS1-vehicle treated mice than in the other groups”.

Values taken from paper PMC6627374, “Effects of the Pentapeptide P33 on Memory and Synaptic Plasticity in APP/PS1 Transgenic Mice: A Novel Mechanism Presenting the Protein Fe65 as a Target” (International Journal of Molecular Sciences, 2019).
